In patent publication US20180072675A1, “ANTIMICROBIAL PYRIDINOHYDRAZIDE AND HYDRAZOMETHYLPYRIDINE-BASED AGENTS” (Board of Supervisors of Louisiana State University and …, priority 2015, published 2018):
Values after ≈ are worked out from the molar mass of the structure shown. Like-named read-outs stand apart in the source and are kept apart here.

Experiments:
[1] = tested on: Candida albicans (ATCC Accession No. 10231); assay: MIC80 fungal growth inhibition, C. albicans ATCC 10231; type: cell-based; conditions: for MIC80: Candida albicans
Experimental: (§1) The antifungal activity of the pyridinohydrazide and hydrazomethylpyridine derivatives described in the s were evaluated in vitro using Candida albicans (ATCC Accession No. 10231) and Candida glabrata (ATCC Accession No. 48435). In addition, the compounds were evaluated for activity against two previously-described clinical isolates of C. albicans known to have developed azole-resistance. These isolates were obtained over a two year period from a single AIDS patient and the development of the azole-resistance mechanisms have been extensively characterized (White T C. Antimicrob. Agents Chemother. (1997) 41: 1482-1487). MIC assays were performed on the clinical isolates 1 and 17 (annotated TW1 and TW17, respectively), where isolate 1 was used as an azole-susceptible control and isolate 17 was considered azole-resistant. All assays were done in accordance with NCCLS reference documents (Clinical Laboratory and Standards Institute. Reference method for Broth Dilution Antifungal Susceptibility Testing of Yeasts: Approved Standard. M27-A3 2010; 28). The results of these screenings are summarized in Tables 1-9 (Examples 20-27) as the minimum concentrations that inhibited more than 80% of fungal growth (MIC80) as compared to positive controls containing 1% DMSO. Assays were performed in HEPES-buffered RPMI-1640 media. All MIC screens used a visual scoring method as opposed to spectroscopic analysis, due to the altered absorbance spectra of many of the compounds.

[2] = tested on: Candida glabrata (ATCC Accession No. 48435); assay: MIC80 fungal growth inhibition, C. glabrata ATCC 48435; type: cell-based; conditions: for MIC80: Nakaseomyces glabratus
Experimental: as §1

Vero (kidney) cells = assay: Mammalian cell toxicity, Promega CellTiter 96, kidney cells; type: cell-based; conditions: 24 h
Experimental: (§2) Cytotoxicity was determined using non-cancerous Vero cells (kidney-african green monkey) and liver cells (Hep-2G) in accordance with Promega CellTiter 96 Non-Radioactive Cell Proliferation Assay (cat # G4000). Compounds were diluted in media and all assays were done in triplicate. Average values are presented, with ±SD. Cells were incubated in the presence of the compounds for 24 h at 37° C. and 5% CO2. Tetrazolium dye solution was added to each well and allowed to incubate for 1-4 h. Solubilization/Stop solution was added and allowed to sit at room temperature for 1 h. Formazan product was scored spectrophotometrically with an automatic plate reader set at 570 nm. Positive control wells for cell death were briefly treated with 0.1% saponin, immediately prior to the addition of dye solution. Wells containing 1% DMSO and no drug were used as a negative control and the average absorbance at 570 nm were set to 100%. The percent of cells viable were calculated as a ratio between the average absorption at 570 nm of the drug containing wells/average absorption at 570 nm of the control (no drug). Ratios were multiplied by 100 to give the values as a percentage as expressed on the y-axis.
(§3) Cytotoxicity studies were performed in accordance with Promega CellTiter 96 Non-RadioactivCell Proliferation Assay (cat #G4000). All cytotoxicity studies used a negative control (wells of either kidney or liver cells containing 1% DMSO but lacking the analog), a positive control (wells of either kidney or liver cells treated with the known cytotoxic agent, saponin) and the serial dilutions of the novel analogs. All control (negative) wells were normalized to 100% viable cells to accurately show the percentage of either liver or kidney cells that remained alive and viable following either overnight incubation with the analogs or 5-minute treatment with 0.1% saponin.

Hep G2 (liver) cells = assay: Mammalian cell toxicity, Promega CellTiter 96, liver cells; type: cell-based; conditions: 24 h
Experimental: as §2, §3

[3] = tested on: Candida albicans ATCC Accession No. 10231; assay: Checkerboard synergy assay with fluconazole; type: cell-based; conditions: for FIC Fluc: average FIC of fluconazole at varying concentrations of the test drug; for FIC Test: average FIC of the test drug at varying concentrations of fluconazole; for Activity (interaction with fluconazole): from FIC index; for FIC Index: sum of the two FICs, <1 synergistic, >=1 antagonistic
Experimental: Considering that two different modes of activity (cidal and static) were observed depending on the structural motifs present in our analogs, we performed a series of checkerboard assays to determine if representative active compounds were in fact acting in synergy with the azole, fluconazole. Each of these assays tested multiple concentrations of the selected analog in the presence of multiple concentrations of fluconazole. All checkerboard assays were prepared in 96-well plates. 200 μl of previously prepared drug solutions were added to each well in column 2. Using a multichannel pipette, 100 μl from each well in column 2 was serially diluted (1:2) horizontally across the plate, stopping at column 10. Contents of each well were mixed thoroughly. Column 11 was reserved for fluconazole MIC control and contained no other drug. 100 μl of media was added to each well, column 2-10. Each well was mixed thoroughly with a multichannel pipette. 100 μl was then removed and discarded from these wells. 100 μl of previously prepared fluconazole dilution was added to each well in row B. Using a multichannel pipette, 100 μl from each well was serially diluted (1:2) vertically down the plate, stopping at row F. Contents of each well were mixed thoroughly. Row G was reserved for tested drug MIC control and contained no fluconazole. Well G11 contained neither drug and served as a drug-free growth control. The final 100 μl from each well in row F was discarded.
The fungal samples were prepared from glycerol stocks of Candida albicans ATCC Accession No. 10231. The inoculum's concentration was adjusted to a McFarland standard between 0.08 and 0.12. Inoculum was then diluted at a ratio of 1:37.5 in buffered media. 100 μl of inoculum-media solution was added to each well. Following inoculation, the 96-well plates were wrapped in parafilm to prevent evaporation and incubated for overnight at 35° C. After 18 h, the wells showing growth were recorded.
Synergistic activity was determined based on the MIC read from these plates. The fractional inhibitory concentration (FIC) for a given well is the ratio of the minimum inhibitory concentration of one drug A in the presence another drug B to the minimum inhibitory concentration with only drug A. The FIC was calculated for the test drug in each of the wells along the growth/no-growth interface at varying concentrations of fluconazole, then these values were averaged to determine the average FIC for the test drug. The same process was used to calculate the average FIC for fluconazole at varying concentrations of the test drug. The sum of these two FICs gives the FIC index which can be used to determine the synergistic effect between the two drugs (Hsieh et al., Diagn. Microbiol. Infect. Dis. (1993) 16: 343-349). An FIC index value less than 1 indicated synergistic interactions between the two drugs while an FIC index value greater than or equal to 1 indicated antagonistic interactions.

Candida spp. = assay: MIC studies, statements pooled over several isolates; type: cell-based, Candida albicans, Candida glabrata; conditions: for antifungal activity (in words): overall over the isolates tested
Experimental: as §1

[4] = ATCC10231, Azole-susceptible, >80% growth inhibition, visual scoring, read-out: MIC80 C. albicans ATCC No. 10231
[5] = ATCC48435, Azole-resistant, >80% growth inhibition, visual scoring, read-out: MIC80 C. glabrata ATCC No. 48435
[6] = Azole-susceptible, >80% growth inhibition, visual scoring

Row | SMILES | MIC80 [1, 4] [µg/mL] | MIC80 [2, 5] [µg/mL] | cell toxicity (Vero (kidney) cells; 100× MIC) | cell toxicity (Hep G2 (liver) cells; 100× MIC) | FIC Fluc [3] | FIC Test [3] | Activity (interaction with fluconazole) [3] | FIC Index [3] | MIC80 C. albicans ATCC No. 10231 [1, 6] [µg/mL] | cell toxicity (Vero (kidney) cells; 5 times the MIC) | activity against azole-resistant isolates (in words) (Candida spp.; azole-resistant isolates) | MIC80 C. glabrata ATCC No. 48435 ([2]; Azole-resistant, >80% growth inhibition, visual scoring) [µg/mL] | cell toxicity (Vero (kidney) cells; through 10× MIC) | cell toxicity (Hep G2 (liver) cells; through 10× MIC) | antifungal activity (in words) (Candida spp.) | cell toxicity (Hep G2 (liver) cells; 5× MIC) | MIC80 ([1]; ATCC10231, read-out: MIC80 C. albicans ATCC No. 10231) [µg/mL] | MIC80 ([2]; ATCC48435, read-out: MIC80 C. glabrata ATCC No. 48435) [µg/mL]
1 | O=C(NN=Cc1cc([N+](=O)[O-])ccc1O)c1cccnc1 [AR12] | – | – | – | – | 1.00 | 1.00 | Antagonistic | 2.00 | 4 (≈ 14 µM) | elevated toxicity | less active | – | – | – | – | – | – | –
2 | O=C(NN=Cc1cc([N+](=O)[O-])ccc1O)c1ccncc1 [AR18] | – | – | minimal cytotoxicity | minimal cytotoxicity | 1.00 | 1.00 | Antagonistic | 2.00 | 4 (≈ 14 µM) | – | – | 31 (≈ 108 µM) | not toxic | not toxic | most potent | – | – | –
3 | C(=N\Nc1ccccc1)/c1cccnc1 [AR44] | 16 (≈ 81.1 µM) | 16 (≈ 81.1 µM) | toxic | toxic | 1.00 | 0.90 | Antagonistic | 1.90 | – | – | – | – | no cell toxicity | no cell toxicity | moderate antifungal activity | – | – | –
4 | C(=N\Nc1ccccc1)/c1ccncc1 [AR48] | – | – | toxic | toxic | 3.87 | 0.80 | Antagonistic | 4.67 | – | – | – | – | no cell toxicity | no cell toxicity | moderate antifungal activity | – | 31 (≈ 157 µM) | 4 (≈ 20.3 µM)

Second part, led by results:

Row | MIC80 [1, 4] [µg/mL] | MIC80 [2, 5] [µg/mL] | SMILES | cell toxicity (Vero (kidney) cells; 100× MIC) | cell toxicity (Hep G2 (liver) cells; 100× MIC) | FIC Fluc [3] | FIC Test [3] | Activity (interaction with fluconazole) [3] | FIC Index [3] | MIC80 C. albicans ATCC No. 10231 [1, 6] [µg/mL] | cell toxicity (Vero (kidney) cells; 5 times the MIC) | activity against azole-resistant isolates (in words) (Candida spp.; azole-resistant isolates) | MIC80 C. glabrata ATCC No. 48435 ([2]; Azole-resistant, >80% growth inhibition, visual scoring) [µg/mL] | cell toxicity (Vero (kidney) cells; through 10× MIC) | cell toxicity (Hep G2 (liver) cells; through 10× MIC) | antifungal activity (in words) (Candida spp.) | cell toxicity (Hep G2 (liver) cells; 5× MIC) | MIC80 ([1]; ATCC10231, read-out: MIC80 C. albicans ATCC No. 10231) [µg/mL] | MIC80 ([2]; ATCC48435, read-out: MIC80 C. glabrata ATCC No. 48435) [µg/mL]
5 | 2 (≈ 7.83 µM) | 2 (≈ 7.83 µM) | Cc1ccc(O)c(/C=N/NC(=O)c2ccccn2)c1 [AR2, (E)-N′-(2-Hydroxy-5-methylbenzylidene)picolinohydrazide] | minimal toxicity | minimal toxicity | 1.00 | 1.00 | Antagonistic | 2.00 | – | – | – | – | – | – | – | – | – | –
6 | 16 (≈ 47.6 µM) | 4 (≈ 11.9 µM) | O=C(N/N=C/c1cc(Br)ccc1O)c1ccc[n+]([O-])c1 [AR27] | – | – | 0.92 | 1.00 | Antagonistic | 1.92 | – | cytotoxic | – | – | – | – | – | cytotoxic | – | –
